Source: ChEMBL document CHEMBL4304761, “Alkylsulfonamide-containing quinazoline derivatives as potent and orally bioavailable PI3Ks inhibitors” (Bioorg Med Chem, 2019)
pIC50: −log10 of the molar value. Active and inactive are the calls of the source. No cut-off for these calls is given here.

Experiments:
HCT-116 [1] = assay: Antiproliferative activity against human HCT116 cells harboring PIK3CA mutant H1047R measured after 72 hrs by MTT assay; type: functional, cell-based; conditions: HCT-116, 72 h
[2] = target: T1, Phosphatidylinositol 4,5-bisphosphate 3-kinase catalytic subunit alpha isoform (Homo sapiens, UniProt P42336); assay: Inhibition of PI3K alpha (unknown origin) using lipid substrate measured after 40 mins in presence of ATP by Kinase-Glo plus reagent based luminescence assay
SU-DHL-6 = assay: Antiproliferative activity against human SUDHL6 cells measured after 72 hrs by CCK-8 assay; type: functional, cell-based; conditions: SU-DHL-6, 72 h
MCF7 = assay: Antiproliferative activity against human MCF7 cells harboring PIK3CA mutant E545K measured after 72 hrs by MTT assay; type: functional, cell-based; conditions: MCF7, 72 h
[3] = Inhibition of PI3K/AKT/mTOR signaling in human HCT116 cells assessed as decrease in AKT phosphorylation at S473 at 1 uM measured after 5 hrs by Western blot analysis; type: cell-based
Homo sapiens [4] = organism: Homo sapiens; assay: Selectivity ratio of IC50 for inhibition of PI3K beta (unknown origin) to IC50 for inhibition of PI3K alpha (unknown origin)
[5] = target: Phosphatidylinositol 4,5-bisphosphate 3-kinase catalytic subunit beta isoform (Homo sapiens, UniProt P42338); assay: Inhibition of PI3K beta (unknown origin) using lipid substrate measured after 40 mins in presence of ATP by Kinase-Glo plus reagent based luminescence assay
Homo sapiens [6] = organism: Homo sapiens; assay: Selectivity ratio of IC50 for inhibition of PI3K gamma (unknown origin) to IC50 for inhibition of PI3K alpha (unknown origin)
[7] = target: Phosphatidylinositol 4,5-bisphosphate 3-kinase catalytic subunit gamma isoform (Homo sapiens, UniProt P48736); assay: Inhibition of PI3K gamma (unknown origin) using lipid substrate measured after 40 mins in presence of ATP by Kinase-Glo plus reagent based luminescence assay
Homo sapiens [8] = organism: Homo sapiens; assay: Selectivity ratio of IC50 for inhibition of PI3K delta (unknown origin) to IC50 for inhibition of PI3K alpha (unknown origin)
[9] = target: T2, Phosphatidylinositol 4,5-bisphosphate 3-kinase catalytic subunit delta isoform (Homo sapiens, UniProt O00329); assay: Inhibition of PI3K delta (unknown origin) using lipid substrate measured after 40 mins in presence of ATP by Kinase-Glo plus reagent based luminescence assay
T2 sequence (O00329 whole entry): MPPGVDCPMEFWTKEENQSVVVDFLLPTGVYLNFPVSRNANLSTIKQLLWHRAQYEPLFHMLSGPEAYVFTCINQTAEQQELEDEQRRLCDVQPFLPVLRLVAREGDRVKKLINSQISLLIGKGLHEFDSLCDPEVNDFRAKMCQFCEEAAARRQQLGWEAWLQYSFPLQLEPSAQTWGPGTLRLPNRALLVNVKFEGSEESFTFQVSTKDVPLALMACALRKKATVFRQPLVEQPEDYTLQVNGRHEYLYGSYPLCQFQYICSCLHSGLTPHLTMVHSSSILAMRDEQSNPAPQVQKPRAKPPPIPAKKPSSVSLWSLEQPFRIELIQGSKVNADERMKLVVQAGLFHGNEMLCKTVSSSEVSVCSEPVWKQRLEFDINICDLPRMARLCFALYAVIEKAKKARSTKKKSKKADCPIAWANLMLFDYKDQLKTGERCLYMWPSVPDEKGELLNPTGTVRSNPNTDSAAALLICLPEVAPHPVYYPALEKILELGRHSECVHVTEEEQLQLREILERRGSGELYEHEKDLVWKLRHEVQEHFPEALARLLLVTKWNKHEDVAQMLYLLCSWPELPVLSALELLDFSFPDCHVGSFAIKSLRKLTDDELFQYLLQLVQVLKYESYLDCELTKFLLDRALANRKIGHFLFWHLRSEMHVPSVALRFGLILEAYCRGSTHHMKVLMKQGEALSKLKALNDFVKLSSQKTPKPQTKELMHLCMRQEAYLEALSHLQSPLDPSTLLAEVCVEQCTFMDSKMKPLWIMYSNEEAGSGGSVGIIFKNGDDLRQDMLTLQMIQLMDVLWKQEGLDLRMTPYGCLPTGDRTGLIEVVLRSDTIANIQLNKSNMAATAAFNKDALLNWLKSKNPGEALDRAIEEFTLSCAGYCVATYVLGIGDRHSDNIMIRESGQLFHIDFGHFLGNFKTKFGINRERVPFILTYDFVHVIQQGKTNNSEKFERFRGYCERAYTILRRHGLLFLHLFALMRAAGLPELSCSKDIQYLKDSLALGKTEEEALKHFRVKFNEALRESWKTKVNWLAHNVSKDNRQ

HCT-116 [10] = assay: Antitumour activity against human HCT116 cells xenografted in BALB/c nude mouse assessed as tumour volume at 25 mg/kg, po via gavage administered once daily for 15 days and measure every three days by caliper method (reference value: 2769 +/- 536 mm3); type: functional
HCT-116 [11] = assay: Antitumour activity against human HCT116 cells xenografted in BALB/c nude mouse assessed as tumour growth inhibition at 25 mg/kg, po via gavage administered once daily for 15 days and measure every three days by caliper method relative to control; type: functional; conditions: HCT-116, po, read-out: TGI
[12] = Toxicity in BALB/c nude mouse xenografted with human HCT116 cells assessed as effect on body weight at 5 to 25 mg/kg, po via gavage administered once daily for 15 days; type: organism-based; conditions: in vivo, 360 h
[13] = target: T1, Phosphatidylinositol 4,5-bisphosphate 3-kinase catalytic subunit alpha isoform; assay: Potency index, ratio of 2-methoxy-5-(4-(2-morpholinoethylamino)quinazolin-6-yl)nicotinonitrile IC50 to test compound IC50 for inhibition of PI3K alpha (unknown origin)
HCT-116 [14] = assay: Antitumour activity against human HCT116 cells xenografted in BALB/c nude mouse assessed as tumour weight at 25 mg/kg, po via gavage administered once daily for 15 days and measure every three days by caliper method (reference value: 3.2 +/- 0.32 g); type: functional
HCT-116 [15] = assay: Antitumour activity against human HCT116 cells xenografted in BALB/c nude mouse assessed as tumour weight at 5 mg/kg, po via gavage administered once daily for 15 days and measure every three days by caliper method (reference value: 3.2 +/- 0.32 g); type: functional
HCT-116 [16] = assay: Antitumour activity against human HCT116 cells xenografted in BALB/c nude mouse assessed as tumour volume at 5 mg/kg, po via gavage administered once daily for 15 days and measure every three days by caliper method (reference value: 2769 +/- 536 mm3); type: functional
[17] = Inhibition of PI3K/AKT/mTOR signaling in human HCT116 cells assessed as decrease in AKT phosphorylation at S473 measured after 5 hrs by Western blot analysis; type: cell-based
HCT-116 [18] = assay: Antitumour activity against human HCT116 cells xenografted in BALB/c nude mouse assessed as tumour growth inhibition at 5 mg/kg, po via gavage administered once daily for 15 days and measure every three days by caliper method relative to control; type: functional; conditions: HCT-116, po, read-out: TGI

Phosphatidylinositol 4,5-bisphosphate 3-kinase catalytic subunit beta isoform, sequence (P42338 whole entry, canonical isoform): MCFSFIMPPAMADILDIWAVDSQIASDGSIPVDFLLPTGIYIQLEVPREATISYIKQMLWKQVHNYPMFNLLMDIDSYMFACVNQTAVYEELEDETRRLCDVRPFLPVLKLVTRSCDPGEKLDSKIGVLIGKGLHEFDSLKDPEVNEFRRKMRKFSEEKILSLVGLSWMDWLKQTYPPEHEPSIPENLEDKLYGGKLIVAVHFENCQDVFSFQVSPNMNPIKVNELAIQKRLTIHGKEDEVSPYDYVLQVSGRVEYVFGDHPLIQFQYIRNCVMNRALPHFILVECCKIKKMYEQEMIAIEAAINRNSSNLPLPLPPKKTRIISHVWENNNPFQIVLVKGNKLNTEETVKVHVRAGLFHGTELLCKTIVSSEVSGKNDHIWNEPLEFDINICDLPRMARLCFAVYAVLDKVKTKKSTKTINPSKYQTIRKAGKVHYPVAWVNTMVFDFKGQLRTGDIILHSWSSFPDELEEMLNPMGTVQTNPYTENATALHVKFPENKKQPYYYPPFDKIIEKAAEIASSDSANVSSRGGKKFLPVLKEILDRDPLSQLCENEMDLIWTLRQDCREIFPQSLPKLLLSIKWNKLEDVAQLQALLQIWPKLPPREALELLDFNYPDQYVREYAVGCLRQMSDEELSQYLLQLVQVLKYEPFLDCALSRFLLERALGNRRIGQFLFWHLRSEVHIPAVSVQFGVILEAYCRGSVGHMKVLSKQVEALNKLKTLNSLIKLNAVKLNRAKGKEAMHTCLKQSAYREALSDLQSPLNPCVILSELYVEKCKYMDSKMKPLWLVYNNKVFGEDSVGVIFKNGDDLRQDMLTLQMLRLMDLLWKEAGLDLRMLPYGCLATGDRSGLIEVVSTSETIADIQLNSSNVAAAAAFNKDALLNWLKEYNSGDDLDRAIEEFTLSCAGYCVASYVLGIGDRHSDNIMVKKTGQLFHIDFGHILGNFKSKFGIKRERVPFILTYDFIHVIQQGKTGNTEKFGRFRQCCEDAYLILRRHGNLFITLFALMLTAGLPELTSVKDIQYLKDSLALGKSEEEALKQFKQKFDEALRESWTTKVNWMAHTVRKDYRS
Phosphatidylinositol 4,5-bisphosphate 3-kinase catalytic subunit gamma isoform, sequence (P48736 whole entry, canonical isoform): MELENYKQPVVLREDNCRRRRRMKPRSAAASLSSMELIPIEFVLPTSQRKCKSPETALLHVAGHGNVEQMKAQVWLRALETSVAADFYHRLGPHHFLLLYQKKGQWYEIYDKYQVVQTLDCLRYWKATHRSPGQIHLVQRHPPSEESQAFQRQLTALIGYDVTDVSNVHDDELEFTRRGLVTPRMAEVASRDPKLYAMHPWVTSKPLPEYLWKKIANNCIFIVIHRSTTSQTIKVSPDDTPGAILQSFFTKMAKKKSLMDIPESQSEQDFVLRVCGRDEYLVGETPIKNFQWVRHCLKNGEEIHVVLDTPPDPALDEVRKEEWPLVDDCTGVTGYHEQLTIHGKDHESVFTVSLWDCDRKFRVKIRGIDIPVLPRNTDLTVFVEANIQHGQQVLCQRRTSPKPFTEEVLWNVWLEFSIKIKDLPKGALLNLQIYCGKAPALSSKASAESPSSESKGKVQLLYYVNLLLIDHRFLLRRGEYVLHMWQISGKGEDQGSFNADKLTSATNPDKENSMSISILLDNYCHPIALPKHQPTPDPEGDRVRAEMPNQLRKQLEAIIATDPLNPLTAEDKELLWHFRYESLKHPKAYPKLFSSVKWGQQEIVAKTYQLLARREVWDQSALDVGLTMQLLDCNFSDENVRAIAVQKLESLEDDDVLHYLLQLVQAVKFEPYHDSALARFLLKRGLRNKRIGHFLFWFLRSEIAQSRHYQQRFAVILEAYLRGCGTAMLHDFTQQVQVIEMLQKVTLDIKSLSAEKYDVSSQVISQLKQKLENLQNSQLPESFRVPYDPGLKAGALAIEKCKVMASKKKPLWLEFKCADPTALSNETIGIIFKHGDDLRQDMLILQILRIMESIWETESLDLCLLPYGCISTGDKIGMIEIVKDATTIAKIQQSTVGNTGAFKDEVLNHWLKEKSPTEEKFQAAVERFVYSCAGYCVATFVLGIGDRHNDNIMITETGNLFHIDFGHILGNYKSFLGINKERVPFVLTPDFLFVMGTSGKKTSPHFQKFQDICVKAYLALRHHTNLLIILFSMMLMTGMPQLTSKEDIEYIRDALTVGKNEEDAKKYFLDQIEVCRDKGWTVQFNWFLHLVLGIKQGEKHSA
T1 sequence (P42336 whole entry, canonical isoform): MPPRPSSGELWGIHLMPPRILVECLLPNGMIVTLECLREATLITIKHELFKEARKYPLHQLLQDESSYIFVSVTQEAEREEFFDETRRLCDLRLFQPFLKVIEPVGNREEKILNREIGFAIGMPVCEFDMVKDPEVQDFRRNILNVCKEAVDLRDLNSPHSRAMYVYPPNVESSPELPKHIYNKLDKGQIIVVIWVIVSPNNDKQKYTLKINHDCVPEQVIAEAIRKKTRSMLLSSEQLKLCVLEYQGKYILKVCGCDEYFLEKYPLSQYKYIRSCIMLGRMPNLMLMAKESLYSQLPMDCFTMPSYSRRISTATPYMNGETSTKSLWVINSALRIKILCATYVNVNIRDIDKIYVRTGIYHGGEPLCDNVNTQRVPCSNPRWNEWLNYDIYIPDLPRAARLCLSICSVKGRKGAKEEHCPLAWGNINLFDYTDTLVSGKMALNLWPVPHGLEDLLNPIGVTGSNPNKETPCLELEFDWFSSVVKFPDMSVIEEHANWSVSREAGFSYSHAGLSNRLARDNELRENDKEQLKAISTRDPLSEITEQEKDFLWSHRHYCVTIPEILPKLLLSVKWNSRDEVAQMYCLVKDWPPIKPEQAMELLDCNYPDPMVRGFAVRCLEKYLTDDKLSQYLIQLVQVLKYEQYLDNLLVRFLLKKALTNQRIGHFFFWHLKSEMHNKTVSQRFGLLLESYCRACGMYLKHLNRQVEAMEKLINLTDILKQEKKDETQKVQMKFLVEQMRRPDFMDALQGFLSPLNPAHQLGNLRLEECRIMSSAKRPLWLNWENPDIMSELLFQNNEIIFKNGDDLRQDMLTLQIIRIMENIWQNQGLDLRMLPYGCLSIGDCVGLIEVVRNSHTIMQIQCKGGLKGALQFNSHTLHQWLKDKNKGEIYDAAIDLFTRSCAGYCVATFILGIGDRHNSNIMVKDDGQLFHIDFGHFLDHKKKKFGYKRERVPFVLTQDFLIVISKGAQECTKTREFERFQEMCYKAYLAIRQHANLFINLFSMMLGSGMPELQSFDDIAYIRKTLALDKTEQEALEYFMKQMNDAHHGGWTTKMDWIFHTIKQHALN

| Compound | pIC50 (HCT-116 [1]) | pIC50 [2] | pIC50 (SU-DHL-6) | pIC50 (MCF7) | further results |
| --- | --- | --- | --- | --- | --- |
| COc1ncc(-c2ccc3ncnc(NCCN(C)C)c3c2)cc1NS(C)(=O)=O | 5.06 | 8.15 | 5.77 | 5.00 | – |
| COc1ncc(-c2ccc3ncnc(N(C)CCN(C)C)c3c2)cc1NS(C)(=O)=O | 5.29 | 8.11 | 5.77 | 5.33 | – |
| Cn1c(=O)n(-c2ccc(C(C)(C)C#N)cc2)c2c3cc(-c4cnc5ccccc5c4)ccc3ncc21 [DACTOLISIB] | 6.43 | – | 7.15 | 6.46 | inhibition [3]: Active |
| COc1ncc(-c2ccc3ncnc(N[C@H]4CCN(C(=O)C(C)(C)C)C4)c3c2)cc1NS(C)(=O)=O | 5.70 | 8.59 | 5.12 | 6.23 | – |
| COc1ncc(-c2ccc3ncnc(N[C@H]4CCN(C(=O)C5CC5)C4)c3c2)cc1NS(C)(=O)=O | 6.00 | 9.00 | 5.52 | 5.43 | – |
| COc1ncc(-c2ccc3ncnc(NC4CCN(C(=O)OC(C)(C)C)CC4)c3c2)cc1NS(C)(=O)=O | 5.74 | 8.15 | 5.01 | 4.82 | – |
| COc1ncc(-c2ccc3ncnc(NCCN4CCCCC4)c3c2)cc1NS(C)(=O)=O | 5.80 | 7.92 | 6.49 | 5.43 | – |
| COc1ncc(-c2ccc3ncnc(N[C@H]4CCN(C(=O)C5CCOCC5)C4)c3c2)cc1NS(C)(=O)=O | 5.77 | 9.15 | 5.82 | 5.32 | Ratio IC50 (Homo sapiens [4]): 10; pIC50 [5]: 8.25; Ratio IC50 (Homo sapiens [6]): 10; pIC50 [7]: 8.19; Ratio IC50 (Homo sapiens [8]): 10; pIC50 [9]: 8.13 |
| COc1ncc(-c2ccc3ncnc(NC4CCN(C(=O)C5CCCC5)CC4)c3c2)cc1NS(C)(=O)=O | 5.55 | 8.55 | 5.48 | 5.10 | – |
| COc1ncc(-c2ccc3ncnc(NC4CCN(C(=O)C5CCOCC5)CC4)c3c2)cc1NS(C)(=O)=O | 5.54 | 8.68 | ≤ 4.00 | 5.22 | – |
| COc1ncc(-c2ccc3ncnc(NCCN4CCOCC4)c3c2)cc1NS(=O)(=O)C1CC1 | 5.72 | 8.15 | 6.48 | 5.82 | – |
| COc1ncc(-c2ccc3ncnc(N[C@H]4CCN(C(=O)OC(C)(C)C)C4)c3c2)cc1NS(C)(=O)=O | 6.60 | 8.28 | 6.77 | 6.06 | – |
| COc1ncc(-c2ccc3ncnc(NCCN4CCOCC4)c3c2)cc1NS(C)(=O)=O | 6.09 | 8.35 | 6.72 | 6.00 | Activity (HCT-116 [10]): 992 mm3; inhibition in vivo at 25 mg/kg (HCT-116 [11]): 62%; Activity [12]: Non-Toxic; pIC50 [5]: 7.80; Ratio IC50 [13]: 100; pIC50 [7]: 8.22; Activity (HCT-116 [14]): 1.6 g; Activity (HCT-116 [15]): 2 g; Activity (HCT-116 [16]): 1299 mm3; inhibition [17]: Dose-dependent effect; pIC50 [9]: 8.66; inhibition in vivo at 5 mg/kg (HCT-116 [18]): 53% |
| COc1ncc(-c2ccc3ncnc(NC4CCNCC4)c3c2)cc1NS(C)(=O)=O | 5.89 | 9.05 | ≤ 4.00 | 4.96 | – |
| COc1ncc(-c2ccc3ncnc(NC4CCN(C(C)=O)CC4)c3c2)cc1NS(C)(=O)=O | 6.14 | 9.40 | 5.37 | 4.80 | – |
| COc1ncc(-c2ccc3ncnc(N[C@H]4CCN(C(=O)C5CCCC5)C4)c3c2)cc1NS(C)(=O)=O | 5.68 | 8.64 | 6.11 | 5.60 | – |
| COc1ncc(-c2ccc3ncnc(NCCN4CCCCC4)c3c2)cc1NS(=O)(=O)C1CC1 | 5.24 | 7.47 | 6.39 | 5.49 | – |
| COc1ncc(-c2ccc3ncnc(N[C@H]4CCN(C(C)=O)C4)c3c2)cc1NS(C)(=O)=O | 6.54 | 9.30 | ≤ 4.00 | 4.85 | Ratio IC50 (Homo sapiens [4]): 10; pIC50 [5]: 8.30; Ratio IC50 (Homo sapiens [6]): 10; pIC50 [7]: 8.37; Ratio IC50 (Homo sapiens [8]): 10; pIC50 [9]: 8.17 |
| COc1ncc(-c2ccc3nccc(NCCN4CCOCC4)c3c2)cc1NS(C)(=O)=O | 4.54 | 6.97 | ≤ 4.00 | 4.06 | – |
